The assay deals with termites. The experiment in a line: termite perforation test on gypsum block treated with compound A, separating two chambers. Conditions: after 21 days; gypsum block sprayed on both faces, 0.05 g/m^2 of compound A; 160 termites in upper chamber. The assay is classed as in vivo. The text has this:
A gypsum block is used which has a surface area of 30 cm^2 and a thickness of 0.8 cm and is covered on both its face with cardboard having a relative density of […] and a thickness of 0.2 mm.
A solution of compound A in propylene glycol is sprayed over both faces of this block in an amount such that the gypsum block contains 0.05 g/m^2 of compound A.
Two vertical cylindrical chambers with a diameter of 5 cm are separated using the gypsum block thus treated. The upper chamber comprises 160 termites placed in damp compost. The lower chamber comprises a piece of wood placed in moistened sand.
After 21 days, a mortality rate equal to 100% is observed.

As to `N#Cc1nn(-c2c(Cl)cc(C(F)(F)F)cc2Cl)c(N)c1[S+]([O-])C(F)(F)F` (stereo not shown) [compound A, 1-[2,6-Cl2-4-CF3phenyl]-3-CN-4-[SO—CF3]-5-NH2pyrazole], the mortality rate is 100%.

Values taken from patent publication US6833137B1, “Protection against termites” (Bayer CropScience S.A., priority 1996, dated 2004).
